# Columns and labels:
# Type in all cases: biochemical
# [1] = molecular target: T1, Aurora A (Homo sapiens, UniProt O14965); assay: Aurora A Enzymatic Assay; conditions: enzyme inhibition; peptide 21 3 μM, ATP 14.58 μM
# T1 construct: purchased Carna 05-101
# T1 sequence (O14965 1-403): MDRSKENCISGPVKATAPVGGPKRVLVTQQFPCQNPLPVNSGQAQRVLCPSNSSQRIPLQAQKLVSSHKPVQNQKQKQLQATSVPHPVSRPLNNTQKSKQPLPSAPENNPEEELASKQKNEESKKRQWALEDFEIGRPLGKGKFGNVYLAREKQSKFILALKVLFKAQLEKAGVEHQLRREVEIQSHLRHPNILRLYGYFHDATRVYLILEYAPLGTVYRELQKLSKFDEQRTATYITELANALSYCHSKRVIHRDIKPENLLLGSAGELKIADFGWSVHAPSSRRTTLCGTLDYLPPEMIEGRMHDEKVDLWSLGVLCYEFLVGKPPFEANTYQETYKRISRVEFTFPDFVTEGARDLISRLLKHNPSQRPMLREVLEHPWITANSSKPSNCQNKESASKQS
# Protocol: (§1) The compound was dissolved in 100% DMSO at the concentration of 10 mM. The Aurora A protein was purchased from Carna (05-101). 10 μL per well of 2.5× Aurora A protein was added to assay plate containing the test compound, centrifuged at 1000 rpm for 1 minute, and then incubated at 25° C. for 10 minutes. Peptide 21 was purchased from GL Biochem (116370) and ATP was purchased from Promega (V9102). The two were added 15 μL per well mixture of 1.67× peptide 21 (final conc. is 3 μM) and ATP (final conc. is 14.58 μM), centrifuged at 1000 rpm for 1 minute, then incubated at 25° C. for 40 minutes. Then added 30 μL of stop buffer (100 mM HEPES pH7.5, 0.015% Brij-35, 0.2% Coating Reagent 3, 50 mM EDTA) to the assay plate and centrifuged at 1000 rpm for 1 minute. the product was determined. Based on the results, the IC50 value of the compound was calculated.
# [2] = molecular target: T2, HPK1 (Homo sapiens, UniProt Q92918); assay: HPK1 Enzymatic Assay (ADP-Glo); conditions: enzyme inhibition; MBP substrate, ATP 20 μM mixture
# T2 construct: purchased Signal Chem M23-11G-10
# T2 sequence (Q92918 1-346 limits assumed): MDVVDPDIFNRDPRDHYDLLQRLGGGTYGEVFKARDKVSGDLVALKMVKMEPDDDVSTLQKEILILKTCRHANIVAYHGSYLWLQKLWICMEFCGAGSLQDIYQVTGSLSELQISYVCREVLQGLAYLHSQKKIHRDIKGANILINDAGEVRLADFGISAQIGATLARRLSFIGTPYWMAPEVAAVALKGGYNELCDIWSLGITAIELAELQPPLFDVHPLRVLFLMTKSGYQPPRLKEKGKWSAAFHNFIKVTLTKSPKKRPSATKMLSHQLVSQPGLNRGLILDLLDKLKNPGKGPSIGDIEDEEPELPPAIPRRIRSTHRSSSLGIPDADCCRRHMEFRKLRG
# Protocol: The compound was dissolved in 100% DMSO at the concentration of 10 mM. The HPK1 protein was purchased from Signal Chem (M23-11G-10). 2.5 μL per well of 2× HPK1 protein was added to assay plate containing the test compound, centrifuged at 1500 rpm for 1 minute, and then incubated at 25° C. for 60 minutes. MBP protein was purchased from Signal Chem (M42-51N) and ATP was purchased from Promega (V9102). The two were added 2.5 μL per well mixture of 2× MBP (0.2 ug/ul) and ATP (20 μM), centrifuged at 1500 rpm for 1 minute, then incubated at 25° C. for 60 minutes. Then added 5 μL of ADP-Glo from Promega (V9102) to the assay plate and depleted the unconsumed ATP for 60 minutes. Then centrifuged at 1500 rpm for 1 minute and incubated at 25° C. for 60 minutes. Finally, 10 μL of the kinase assay reagent from Promega (V9102) was added to the assay plate to convert ADP to ATP, centrifuged at 1500 rpm for 1 minute, incubate at 25° C. for 40 minutes. After 40 minutes incubation, the fluorescence was determined. Based on the results, the IC50 value of the compound was calculated.
# [3] = molecular target: T3, FLT3-ITD (Homo sapiens, UniProt P36888); assay: FLT3-ITD Enzymatic Assay; conditions: enzyme inhibition; peptide 2 3 μM, ATP 97.2 μM
# T3 sequence (P36888 1-993): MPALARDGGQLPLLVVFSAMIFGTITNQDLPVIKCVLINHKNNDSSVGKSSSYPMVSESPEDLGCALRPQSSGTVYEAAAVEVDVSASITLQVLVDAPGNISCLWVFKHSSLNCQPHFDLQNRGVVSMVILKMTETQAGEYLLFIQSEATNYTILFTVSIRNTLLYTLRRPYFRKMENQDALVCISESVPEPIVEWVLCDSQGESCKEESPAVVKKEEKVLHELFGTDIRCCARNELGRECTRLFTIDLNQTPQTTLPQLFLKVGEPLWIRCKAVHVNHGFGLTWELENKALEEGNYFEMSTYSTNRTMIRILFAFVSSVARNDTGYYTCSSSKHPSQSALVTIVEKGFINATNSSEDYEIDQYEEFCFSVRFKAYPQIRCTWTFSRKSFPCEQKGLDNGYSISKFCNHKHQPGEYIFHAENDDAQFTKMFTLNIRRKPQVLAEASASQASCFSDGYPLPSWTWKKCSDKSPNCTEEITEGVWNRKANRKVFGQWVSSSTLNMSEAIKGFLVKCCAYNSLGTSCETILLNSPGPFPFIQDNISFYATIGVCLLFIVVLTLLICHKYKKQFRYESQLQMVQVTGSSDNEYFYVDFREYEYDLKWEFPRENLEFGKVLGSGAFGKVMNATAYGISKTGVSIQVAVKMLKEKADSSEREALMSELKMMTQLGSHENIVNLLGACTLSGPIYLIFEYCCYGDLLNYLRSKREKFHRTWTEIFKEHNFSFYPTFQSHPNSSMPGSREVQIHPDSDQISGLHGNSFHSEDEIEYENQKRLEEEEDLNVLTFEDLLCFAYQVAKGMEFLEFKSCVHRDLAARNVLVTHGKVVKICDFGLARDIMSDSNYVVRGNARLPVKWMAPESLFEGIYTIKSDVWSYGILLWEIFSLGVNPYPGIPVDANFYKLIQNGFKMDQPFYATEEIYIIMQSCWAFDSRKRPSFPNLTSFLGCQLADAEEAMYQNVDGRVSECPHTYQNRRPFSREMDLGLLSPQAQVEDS
# Protocol: as §1, with “FLT3-ITD” for “Aurora A”, “Invitrogen (PV6191).” for “Carna (05-101).”, “2” for “21”, “(112394)” for “(116370)”, “97.2” for “14.58”
Compound,IC50 [1],IC50 [2],IC50 [3]
"O=c1[nH]ncn1-c1cccc(-c2cnc3[nH]cc(C4CC4)c3c2Cl)c1 [Compound 2, 4-(3-(4-chloro-3-cyclopropyl-1H-pyrrolo[2,3-b]pyridin-5-yl)phenyl)-2,4-dihydro-3H-1,2,4-triazol-3-one]",53.6 nM,18.2 nM,23.7 nM
CCc1c[nH]c2ncc(-c3cccc(N4CCNC4=O)c3)c(Cl)c12 [Compound 3],13.3 nM,25.7 nM,22.5 nM
"O=C1NCCN1c1cccc(-c2cnc3[nH]cc(C4CC4)c3c2Cl)n1 [Compound 6, 1-(6-(4-chloro-3-cyclopropyl-1H-pyrrolo[2,3-b]pyridin-5-yl)pyridin-2-yl) imidazolidin-2-one]",9.5 nM,14.3 nM,6.1 nM
"Cc1sc(N2CCCNC2=O)nc1-c1cnc2[nH]cc(C3CC3)c2c1Cl [Compound 7, 1-(4-(4-chloro-3-cyclopropyl-1H-pyrrolo[2,3-b]pyridin-5-yl)-5-methylthiazol-2-yl)tetrahydropyrimidin-2(1H)-one]",93.7 nM,126 nM,4.2 nM
CCc1c[nH]c2ncc(-c3cccc(N4CCCNC4=O)c3)c(Cl)c12 [Compound 9],172 nM,2 nM,0.8 nM
"O=C1NC2(CCNC2)CN1c1cccc(-c2cnc3[nH]cc(C4CC4)c3c2Cl)c1 (stereo not drawn) [Compound 11, 3-(3-(4-chloro-3-cyclopropyl-1H-pyrrolo[2,3-b]pyridin-5-yl)phenyl)-1,3,7-triazaspiro[4.4]nonan-2-one]",34.3 nM,15.7 nM,22.3 nM
"CCN(C)C(=O)c1c[nH]c2ncc(-c3cccc(N4CCCNC4=O)c3)c(Cl)c12 [Compound 12, 4-Chloro-N-ethyl-N-methyl-5-(3-(2-oxotetrahydropyrimidin-1 (2H)-yl)phenyl)-1H-pyrrolo[2,3-b]pyridine-3-carboxamide]",> 1000 nM,> 1000 nM,> 990 nM
"CS(=O)(=O)c1ccc(-c2cnc3[nH]cc(C4CC4)c3c2Cl)cc1N1CCCNC1=O [Compound 14, 1-(5-(4-chloro-3-cyclopropyl-1H-pyrrolo[2,3-b]pyridin-5-yl)-2-(methylsulfonyl)phenyl)tetrahydropyrimidin-2(1H)-one]",7.1 nM,151 nM,37.4 nM

# Further compounds by falling IC50 [1], results first:
IC50 [1],IC50 [2],IC50 [3],Compound
78.9 nM,827 nM,93.6 nM,"N#Cc1cc(-c2cnc3[nH]cc(C4CC4)c3c2Cl)cc(N2CCCNC2=O)c1 [Compound 13, 3-(4-chloro-3-cyclopropyl-1H-pyrrolo[2,3-b]pyridin-5-yl)-5-(2-oxotetrahydropyrimidin-1(2H)-yl)benzonitrile]"
35.8 nM,20.6 nM,37.8 nM,"CCc1c[nH]c2ncc(-c3cccc(-n4cn[nH]c4=O)c3)c(Cl)c12 [Compound 1, 4-(3-(4-chloro-3-ethyl-1H-pyrrolo[2,3-b]pyridin-5-yl)phenyl)-2,4-dihydro-3H-1,2,4-triazol-3-one]"
27.4 nM,14.4 nM,11.6 nM,"O=C1NC2(CCNC2)C(=O)N1c1cccc(-c2cnc3[nH]cc(C4CC4)c3c2Cl)c1 (stereo not drawn) [Compound 10, 3-(3-(4-chloro-3-cyclopropyl-1H-pyrrolo[2,3-b]pyridin-5-yl)phenyl)-1,3,7-triazaspiro[4.4]nonane-2,4-dione]"
22.9 nM,27.6 nM,14.6 nM,O=C1NCCN1c1cccc(-c2cnc3[nH]cc(C4CC4)c3c2Cl)c1 [Compound 4]
7.8 nM,2.4 nM,6 nM,"O=C1NCCCN1c1cccc(-c2cnc3[nH]cc(C4CC4)c3c2Cl)n1 [Compound 8, 1-(6-(4-chloro-3-cyclopropyl-1H-pyrrolo[2,3-b]pyridin-5-yl)pyridin-2-yl)tetrahydropyrimidin-2(1H)-one]"
3.1 nM,18.9 nM,2.2 nM,O=C1NCCCN1c1nc(-c2cnc3[nH]cc(C4CC4)c3c2Cl)cs1 [Compound 5]

# From patent publication US20260265247A1, “MULTI-KINASE INHIBITORS, COMPOSITIONS THEREOF, AND METHODS OF USING THE SAME” (BIOFRONT LTD, priority 2022, published 2026)
